Columns and labels:
[1] = biological target: T1, Prostaglandin G/H synthase 2 (Homo sapiens, UniProt P35354); experiment: Inhibition of recombinant human COX2 assessed as decrease in PGE2 release after 10 mins by ELISA
T1 sequence (P35354 whole entry): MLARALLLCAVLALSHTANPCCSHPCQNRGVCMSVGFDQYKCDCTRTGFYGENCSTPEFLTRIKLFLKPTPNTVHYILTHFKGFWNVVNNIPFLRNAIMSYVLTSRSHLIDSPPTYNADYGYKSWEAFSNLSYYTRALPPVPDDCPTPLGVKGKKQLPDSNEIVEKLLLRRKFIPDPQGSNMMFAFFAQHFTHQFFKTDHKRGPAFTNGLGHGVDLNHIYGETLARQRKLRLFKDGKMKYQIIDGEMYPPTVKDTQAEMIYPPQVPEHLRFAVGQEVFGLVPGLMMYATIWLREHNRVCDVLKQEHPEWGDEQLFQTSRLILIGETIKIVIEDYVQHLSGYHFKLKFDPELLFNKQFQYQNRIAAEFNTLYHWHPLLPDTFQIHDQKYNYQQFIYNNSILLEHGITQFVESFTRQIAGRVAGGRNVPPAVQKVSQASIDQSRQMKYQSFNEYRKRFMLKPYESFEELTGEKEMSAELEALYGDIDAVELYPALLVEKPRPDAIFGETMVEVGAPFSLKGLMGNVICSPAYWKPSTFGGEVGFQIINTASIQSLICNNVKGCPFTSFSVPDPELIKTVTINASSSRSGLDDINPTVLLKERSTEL

[2] = Selectivity ratio of IC50 for ovine COX1 to IC50 for recombinant human COX2
Mus musculus = experiment: Anti-inflammatory activity in formalin-induced Swiss albino mouse assessed as reduction in paw edema volume at 10 mg/kg, ip pretreated for 30 mins followed by formalin addition relative to control; type: functional; parameters: scale not given: the % may be the effect or the level left
Rattus norvegicus [3] = experiment: Anti-inflammatory activity in carrageenan-induced albino rat assessed as reduction in paw edema volume at 20 umol/kg, po measured at 1 hr intervals up to 4 hrs relative to control; type: functional; parameters: scale not given: the % may be the effect or the level left
[4] = In vitro anti-inflammatory activity at 100 mg/ml incubated for 15 mins followed by heating for 10 mins and cooling by albumin denaturation assay relative to control
[5] = biological target: T1, Prostaglandin G/H synthase 2; experiment: Inhibition of COX2 (unknown origin) using arachidonic acid as substrate preincubated for 20 mins followed by substrate addition measured at 1 sec interval up to 60 secs by chemiluminescence assay
Rattus norvegicus [6] = experiment: Anti-inflammatory activity in carrageenan-induced Swiss albino rat assessed as reduction in paw edema by measuring swelling thickness at 10 ml/kg, po pretreated for 1 hr followed by carrageenan addition and measured up to 6 hrs at 1 hr interval relative to control; type: functional; parameters: scale not given: the % may be the effect or the level left
[7] = biological target: T2, Prostaglandin G/H synthase 2 (Homo sapiens) (UniProt P35354); conditions: Blood, at 10 µM
T2 sequence (whole entry): T1 sequence (P35354 whole entry)
Description: Inhibition of COX2 in LPS-induced human whole blood at 10 uM after 24 hrs by EIA relative to control

For `CCOC(=O)CSc1nnc(-c2ccc(S(C)(=O)=O)cc2)c(-c2ccc(F)cc2)n1`, which IC50 [1] is on record?
The IC50 was 10.1 µM.

And the Ratio IC50 [2]?
The Ratio IC50 was 8.79.

Which Activity (Mus musculus) does the source give for `Cc1sc2nnn(-c3ccccc3Cl)c(=O)c2c1C` here?
The Activity was 36.47%.

For `Cc1ccc(Nc2nc(-c3ccccc3)c3c(n2)sc2c(Nc4ccc(S(=O)(=O)NC(=N)N)cc4)nnnc23)cc1`, which Activity (Rattus norvegicus [3]) is on record?
The Activity was 78.57%.

For `Cc1sc2nnn(-c3ccccc3)c(=O)c2c1C`, which Activity (Mus musculus) is on record?
The Activity was 70.82%.

Which Activity (Mus musculus) does the source give for `Cc1sc2nnn(-c3ccc(F)cc3)c(=O)c2c1C` here?
The Activity was 34.12%.

For `Cc1ccc(Nc2nnc(Cn3nc(-c4ccccc4)c(-c4ccccc4)nc3=O)s2)cc1`, which Activity [4] is on record?
Its Activity is 71.9 to 79.2%.

Which Activity [4] does the source give for `COc1ccc(-n2c(S)nnc2Cn2nc(-c3ccccc3)c(-c3ccccc3)nc2=O)cc1` here?
The Activity was 71.9 to 79.2%.

With `COc1ccc(Nc2nnc(Cn3nc(-c4ccccc4)c(-c4ccccc4)nc3=O)s2)cc1` as the compound, how does the Activity [4] read?
The Activity was 71.9 to 79.2%.

Which IC50 [1] does the source give for `CCOC(=O)CSc1nnc(-c2ccc(S(C)(=O)=O)cc2)c(-c2ccc(C)cc2)n1` here?
Its IC50 is 10.1 µM.

And the Ratio IC50 [2]?
Its Ratio IC50 is 8.79.

Which Activity [4] does the source give for `O=c1nc(-c2ccccc2)c(-c2ccccc2)nn1Cc1nnc(Nc2ccc(Cl)cc2)s1` here?
The Activity was 71.9 to 79.2%.

Which IC50 [1] does the source give for `CCOC(=O)CSc1nnc(-c2ccc(S(C)(=O)=O)cc2)c(-c2ccc(Cl)cc2)n1` here?
Its IC50 is 10.1 µM.

And the Ratio IC50 [2]?
Its Ratio IC50 is 8.79.

With `CCOC(=O)c1cnn(-c2ccccn2)c1-n1nnc2ccccc2c1=O` as the compound, how does the IC50 [5] read?
The IC50 was 20 µM.

For `O=c1nc(-c2ccccc2)c(-c2ccccc2)nn1Cc1nnc(S)n1-c1ccc([N+](=O)[O-])cc1`, which Activity [4] is on record?
Its Activity is 71.9 to 79.2%.

Which Activity (Mus musculus) does the source give for `O=C([O-])Cc1ccccc1Nc1c(Cl)cccc1Cl.[Na+]` [DICLOFENAC SODIUM] here?
The Activity was 78.82%.

For `O=c1nc(-c2ccccc2)c(-c2ccccc2)nn1Cc1nnc(Nc2ccc([N+](=O)[O-])cc2)s1`, which Activity [4] is on record?
Its Activity is 71.9 to 79.2%.

With `COc1ccc2c(c1)c(CC(=O)O)c(C)n2C(=O)c1ccc(Cl)cc1` [INDOMETHACIN] as the compound, how does the Activity [4] read?
Its Activity is 82.7%.

What about the Activity (Rattus norvegicus [3]) of the same compound?
Its Activity is 80.96%.

And the Activity (Rattus norvegicus [6])?
The Activity was 63.56%.

With `Cc1ccc(-c2cc(C(F)(F)F)nn2-c2ccc(S(N)(=O)=O)cc2)cc1` [CELECOXIB] as the compound, how does the Activity [4] read?
Its Activity is 80.3%.

What about the Activity (Rattus norvegicus [6]) of the same compound?
The Activity was 62.26%.

For `O=c1nc(-c2ccccc2)c(-c2ccccc2)nn1Cc1nnc(S)n1-c1ccc(Cl)cc1`, which Activity [4] is on record?
The Activity was 71.9 to 79.2%.

What does the source list for `O=c1nc(-c2ccccc2)c(-c2ccccc2)nn1Cc1nnc(Nc2ccc([N+](=O)[O-])cc2)o1`?
Activity [4]: 71.9 to 79.2%; Activity (Rattus norvegicus [6]): 57.9 - 61.56%

Which Activity [4] does the source give for `O=c1nc(-c2ccccc2)c(-c2ccccc2)nn1Cc1nnc(Nc2ccc(Cl)cc2)o1` here?
The Activity was 71.9 to 79.2%.

And the Activity (Rattus norvegicus [6])?
Its Activity is 57.9 - 61.56%.

With `CCOC(=O)CSc1nnc(-c2ccc(S(C)(=O)=O)cc2)c(-c2ccc(OC)cc2)n1` as the compound, how does the IC50 [1] read?
Its IC50 is 10.1 µM.

And the Ratio IC50 [2]?
The Ratio IC50 was 8.79.

Which Activity (Mus musculus) does the source give for `Cc1sc2nnn(-c3ccc(F)c(Cl)c3)c(=O)c2c1C` here?
Its Activity is 36.35%.

With `Cc1ccc(Nc2nnc(Cn3nc(-c4ccccc4)c(-c4ccccc4)nc3=O)o2)cc1` as the compound, how does the Activity [4] read?
The Activity was 71.9 to 79.2%.

And the Activity (Rattus norvegicus [6])?
The Activity was 57.9 - 61.56%.

Which IC50 [1] does the source give for `CCOC(=O)CSc1nnc(-c2ccc(S(C)(=O)=O)cc2)c(-c2ccccc2)n1` here?
Its IC50 is 10.1 µM.

What about the Ratio IC50 [2] of the same compound?
Its Ratio IC50 is 8.79.

For `Cc1ccc(-n2c(S)nnc2Cn2nc(-c3ccccc3)c(-c3ccccc3)nc2=O)cc1`, which Activity [4] is on record?
The Activity was 71.9 to 79.2%.

Which Activity (Rattus norvegicus [3]) does the source give for `Cc1ccc(Nc2nc(-c3ccccc3)c3c(n2)sc2c(Cl)nnnc23)cc1` here?
Its Activity is 82.85%.

For `O=c1nc(-c2ccccc2)c(-c2ccccc2)nn1Cc1nnc(Nc2ccccc2)s1`, which Activity [4] is on record?
The Activity was 71.9 to 79.2%.

For `O=c1nc(-c2ccccc2)c(-c2ccccc2)nn1Cc1nnc(S)n1-c1ccccc1`, which Activity [4] is on record?
Its Activity is 71.9 to 79.2%.

Which Activity [4] does the source give for `COc1ccc(Nc2nnc(Cn3nc(-c4ccccc4)c(-c4ccccc4)nc3=O)o2)cc1` here?
The Activity was 71.9 to 79.2%.

And the Activity (Rattus norvegicus [6])?
The Activity was 57.9 - 61.56%.

For `COc1ccc(-c2nnc(N/N=C/c3ccc4c(c3)OCO4)nc2-c2ccc(OC)cc2)cc1`, which inhibition [7] is on record?
The inhibition was 78%.

Which inhibition [7] does the source give for `COc1ccc(-c2nnc(N/N=C/c3cccc(OC)c3OC)nc2-c2ccc(OC)cc2)cc1` here?
Its inhibition is 78%.

Which Activity [4] does the source give for `O=c1nc(-c2ccccc2)c(-c2ccccc2)nn1Cc1nnc(Nc2ccccc2)o1` here?
The Activity was 71.9 to 79.2%.

And the Activity (Rattus norvegicus [6])?
The Activity was 57.9 - 61.56%.

Source: ChEMBL document CHEMBL4325906, “Anti-inflammatory activity of triazine derivatives: A systematic review” (Eur J Med Chem, 2019)
